{"source": "patent US6207677A", "about": "“Piperidine derivatives having anxiolytic effect” (H. Lundbeck A/S, priority 1991, dated 2001)", "note": "pIC50: −log10 of the molar value.", "data": [{"biological_target": "sigma receptors", "assay": "Inhibition of 3H-DTG binding to sigma receptors in rat brain in vitro", "conditions": "2 nM 3H-DTG, rat brain without cerebellum, 25° C., 20 min", "values": [{"smiles": "Fc1ccc(N2CC(CCCCN3CCC4(CC3)OCc3ccccc34)c3ccccc32)cc1", "note": "(stereo not shown) [Compound 30, 1'-(4-(2,3-Dihydro-1-(4-fluorophenyl)-3-indolyl)-1-butyl)spiro[isobenzofuran-1(3H),4'-piperidine]]", "pIC50": 10.15}, {"smiles": "c1ccc2c(c1)COC21CCN(CCCSc2csc3ccccc23)CC1", "note": "[Compound 31a]", "pIC50": 9.64}, {"smiles": "c1ccc2c(c1)COC1(CCN(CCCSc3csc4ccccc34)CC1)C2", "note": "[Compound 31b, 1'-[3-(Benzo[b]thiophen-3-ylthio)-1-propyl] spiro[3H-2-benzopyran-3,4'-piperidine]]", "pIC50": 8.59}, {"smiles": "O=S1(=O)CC(=CCCCN2CCC3(CC2)OCc2ccccc23)c2ccccc21", "note": "[Compound 32, 1'-[4-(2. 3-Dihydro-benzo[b]thiophen-3-yliden)-1-butyl]spiro[isobenzofuran-1(3H),4'-piperidine]-S,S-dioxide]", "pIC50": 9.05}, {"smiles": "O=S1(=O)CC(CCCCN2CCC3(CC2)OCc2ccccc23)c2ccccc21", "note": "(stereo not shown) [Compound 33, 1'-[4-(2,3-Dihydro-benzo[b]thiophen-3-yl)-1-butyl]spiro[isobenzofuran-1(3H),4'-piperidine]-S,S-dioxide]", "pIC50": 9.02}, {"smiles": "c1ccc2c(c1)COC21CCN(CCCOc2csc3ccccc23)CC1", "note": "[Compound 34, 1'-[3-(Benzo[b]thiophen-3-yloxy)-1-propyl]spiro[isobenzofuran-1(3H),4'-piperidine]]", "pIC50": 9.57}, {"smiles": "c1ccc2c(c1)COC21CCN(CCOCc2csc3ccccc23)CC1", "note": "[Compound 35a, 1'-[2-(Benzo[b]thiophen-3-ylmethyloxy)-1-ethyl]spiro[isobenzofuran-1(3H),4'-piperidine]]", "pIC50": 9.14}, {"smiles": "Fc1ccc2occ(COCCN3CCC4(CC3)OCc3ccccc34)c2c1", "note": "[Compound 35b, 1'-[2-(5-Fluorobenzofuran-3-ylmethyloxy)-1-ethyl]spiro[isobenzofuran-1(3H),4'-piperidine]]", "pIC50": 8.55}, {"smiles": "CN(C)CCn1cc(CCCCN2CCC3(CC2)OCc2ccccc23)c2ccccc21", "note": "[Compound 36, 1'-[4-(1-(2-Dimethylamino-1-ethyl)-3-indolyl)-1-butyl]spiro[isobenzofuran-1(3H) ,4'-piperidine]]", "pIC50": 8.35}]}, {"test_system": "psychosis", "assay": "not given", "conditions": "Snyder, Largent 1989; cited from earlier work", "values": [{"smiles": "C[C@@H]1CN(CCCn2c3ccccc3c3ccccc32)C[C@H](C)N1", "note": "[rimcazole, reference compound]", "clinical effect in psychosis": "clinically shows effects in the treatment of psychosis"}]}]}
